Measurements from ChEMBL document CHEMBL1201862, “PubChem BioAssay data set” (2004).
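Interpolation was linear, between the two tested concentrations surrounding the appropriate level; five concentrations were tested over 48 hours in 96-well plates. At the GI50, growth is halved.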 Activity calls are given as the source filed them. Cut-off read from the data, not from the text of the source: active = GI50 up to about 1.1 µM and inactive = higher. Where a SMILES comes first, the peptide text is derived from it. The star is where a group is joined. Boc = CC(C)(C)OC(=O)*

Legend:
Assay in all cases: NCI tumour cell line growth inhibition, 48 h
BT-549 = tested on: BT-549
DU-145 = tested on: DU-145
Hs-578T = tested on: Hs-578T
MDA-MB-231 = tested on: MDA-MB-231
NCI/ADR-RES = tested on: NCI/ADR-RES
PC-3 = tested on: PC-3
DMS-114 = tested on: DMS-114
HOP-18 = tested on: HOP-18

Row | Structure (SMILES) | GI50 (BT-549) | GI50 (DU-145) | GI50 (Hs-578T) | GI50 (MDA-MB-231) | GI50 (NCI/ADR-RES) | GI50 (PC-3) | GI50 (DMS-114) | GI50 (HOP-18)
1 | C=Cc1cnc([N+](=O)[O-])n1C | 46.3 µM (inactive) | 37.1 µM (inactive) | 35.7 µM (inactive) | > 100 µM (inactive) | > 100 µM (inactive) | 40.8 µM (inactive) | – | –
2 | C=CC[N+]12CN3CN(CN(C3)C1)C2 | 26.7 µM (inactive) | 21.1 µM (inactive) | > 100 µM (inactive) | 32.2 µM (inactive) | 26.1 µM (inactive) | 31.4 µM (inactive) | – | –
3 | S=P1(N2CCCCC2)Oc2ccc3ccccc3c2-c2c(ccc3ccccc23)O1 | – | – | – | – | > 51.2 µM (inactive) | – | > 83 µM (inactive) | > 71.8 µM (inactive)
4 | S=C(Cc1ccc2c(c1)Sc1ccccc1O2)N1CCOCC1 | – | > 100 µM (inactive) | 21.1 µM (inactive) | 58.7 µM (inactive) | 24.8 µM (inactive) | 28.3 µM (inactive) | – | –
5 | C=C1Oc2nc3ccccc3c(=O)n2C1(C)C | – | – | – | – | – | – | > 100 µM (inactive) | > 100 µM (inactive)
6 | O=c1[nH]nc(-c2ccccc2)n1/N=C/c1ccccc1Cl | 37.1 µM (inactive) | 41.3 µM (inactive) | 16.2 µM (inactive) | > 100 µM (inactive) | 19.8 µM (inactive) | 15.1 µM (inactive) | – | –
7 | COP(C)(=O)/C(Cc1ccccc1)=N\O (configuration not stated) | – | > 100 µM (inactive) | > 100 µM (inactive) | > 100 µM (inactive) | > 100 µM (inactive) | > 100 µM (inactive) | – | –
8 | O=C1/C(=C/c2ccc(Oc3ccccc3)cc2)N=C(c2ccccc2)N1c1ccc(S(=O)(=O)Nc2nccs2)cc1 | – | 47 µM (inactive) | 39.4 µM (inactive) | 28.2 µM (inactive) | 13.1 µM (inactive) | 25.4 µM (inactive) | – | –
9 | COc1ccc2c(c1)OCCC1=C2SCC2(C)CCN=C12 (configuration not stated) | – | – | – | – | – | – | 92 µM (inactive) | 48.3 µM (inactive)
10 | CCOC(=O)c1ccc(C(=O)n2ccnc2)[nH]1 | > 100 µM (inactive) | > 100 µM (inactive) | > 100 µM (inactive) | > 100 µM (inactive) | > 100 µM (inactive) | > 100 µM (inactive) | – | –
11 | CCOC(=O)CC[C@H](NC(=O)c1nc[nH]c1/N=N/N(C)C)C(=O)OCC | – | – | – | – | – | – | > 100 µM (inactive) | –
12 | O=P1(O)c2ccccc2CS(=O)(=O)Cc2ccccc21 | > 100 µM (inactive) | > 100 µM (inactive) | > 100 µM (inactive) | > 100 µM (inactive) | > 100 µM (inactive) | > 100 µM (inactive) | – | –
13 | c1ccc2c(c1)nnn2CNc1ccc(N2CCOCC2)cc1 | – | – | – | – | – | – | > 100 µM (inactive) | > 100 µM (inactive)
14 | C=C1CC(C)(COc2ccc3c(C)c(C)c(=O)oc3c2C)OC1=O (configuration not stated) | 1.5 µM (inactive) | 2.51 µM (inactive) | 1.9 µM (inactive) | 2.52 µM (inactive) | 2.46 µM (inactive) | 2.27 µM (inactive) | – | –
15 | Cc1ccc(S(=O)(=O)NC(=O)NC(CCCCNC(=N)N)C(=O)O)cc1 (configuration not stated) | > 100 µM (inactive) | > 100 µM (inactive) | > 100 µM (inactive) | > 100 µM (inactive) | > 100 µM (inactive) | > 100 µM (inactive) | – | –
16 | CCCCc1c2cnccc2c(CCCC)c2c1[nH]c1ccccc12 | – | – | – | – | – | – | 3.99 µM (inactive) | 3.59 µM (inactive)
17 | COc1ccc2c(OC)c3ccoc3nc2c1O | – | – | – | – | – | – | > 100 µM (inactive) | 0.114 µM (active)
18 | CC(=O)[C@@]1(c2ccccc2)CC2(CCN(C)CC2)O[C@H]1C | > 100 µM (inactive) | > 100 µM (inactive) | – | > 100 µM (inactive) | > 100 µM (inactive) | – | – | –
19 | O=CNCNCCO | > 100 µM (inactive) | > 100 µM (inactive) | > 100 µM (inactive) | – | > 100 µM (inactive) | – | – | –
20 | COc1cccc(/C=C2\C(=O)N(C(=O)Cc3ccccc3)N=C2C)c1 | – | – | – | – | – | – | > 100 µM (inactive) | 12.4 µM (inactive)
21 | O=C(N/N=C1\C(=O)Nc2ccc(Br)cc21)/C(O)=C/C(=O)c1ccc(Cl)cc1 | 35.5 µM (inactive) | > 100 µM (inactive) | 30.2 µM (inactive) | 45.5 µM (inactive) | > 100 µM (inactive) | 77.1 µM (inactive) | – | –
22 | Cc1nc2ccc(S(=O)(=O)Nc3nccs3)cc2c(=O)n1NS(=O)(=O)c1nccs1 | > 100 µM (inactive) | > 100 µM (inactive) | > 100 µM (inactive) | > 100 µM (inactive) | > 100 µM (inactive) | 86.9 µM (inactive) | – | –
23 | C#CCN1C(=O)CN2C(Cl)(Cl)C2(c2ccccc2)c2cc(Cl)ccc21 (configuration not stated) | – | – | – | – | – | – | 51.5 µM (inactive) | > 100 µM (inactive)
24 | CC(C)Oc1cccc(N2C(n3ccnc3)=Nc3ccncc3S2(=O)=O)c1 | 15.5 µM (inactive) | 12.2 µM (inactive) | 19 µM (inactive) | – | 21 µM (inactive) | 10.8 µM (inactive) | – | –
25 | Cc1ccccc1N1C(=O)C2C=CC(n3[nH]c(=O)n(Cc4ccccc4)c3=O)CC2C1=O (configuration not stated) | – | – | – | – | – | – | > 100 µM (inactive) | > 100 µM (inactive)
26 | CC(C)=CCN1c2ccc(Cl)cc2NC(=O)CC1C (configuration not stated) | 21.8 µM (inactive) | 42.1 µM (inactive) | 24.3 µM (inactive) | 19.3 µM (inactive) | – | 23.8 µM (inactive) | – | –

Row | Structure (SMILES) | GI50 (BT-549) | GI50 (DU-145) | GI50 (Hs-578T) | GI50 (MDA-MB-231) | GI50 (NCI/ADR-RES) | GI50 (PC-3) | GI50 (DMS-114) | GI50 (HOP-18)
27 | COc1ccc(-c2csc3c2[N+]2(C)C=CC=C2C3N2CCCC2)cc1 (configuration not stated) | 8.2 µM (inactive) | – | 15.7 µM (inactive) | 94 µM (inactive) | 17.3 µM (inactive) | 23 µM (inactive) | – | –
28 | N#CC1(c2nc3ccccc3o2)C(=O)C(=O)N(C2C3CC4CC(C3)CC2C4)C(=O)C1=O (configuration not stated) | – | – | – | – | – | – | > 100 µM (inactive) | > 100 µM (inactive)
29 | CN1CN(c2ccccc2)C2(CCN(CCCC(=O)c3cccs3)CC2)C1=O | – | 36.6 µM (inactive) | – | 50.9 µM (inactive) | 41 µM (inactive) | 94.8 µM (inactive) | – | –
30 | CCOC(=O)c1cn2c(n1)sc1cc([N+](=O)[O-])ccc12 | 74.6 µM (inactive) | > 100 µM (inactive) | > 100 µM (inactive) | 38.5 µM (inactive) | > 100 µM (inactive) | > 100 µM (inactive) | – | –
31 | CC(=O)/C=C1\CC(=O)N(C)c2ccccc2N1 | – | – | – | – | – | – | 29.3 µM (inactive) | –
32 | C(=C\Nc1ccc(Oc2ccccc2)cc1)/C=N/c1ccc(Oc2ccccc2)cc1 | 15.9 µM (inactive) | 20.1 µM (inactive) | 19.9 µM (inactive) | 17.1 µM (inactive) | 16.9 µM (inactive) | 15.1 µM (inactive) | – | –
33 | CCCCCCCC(=O)OCC1OC(n2cc(F)c(=O)[nH]c2=O)C(NC(=O)OCc2ccccc2)C(OC(=O)CCCCCCC)C1O (configuration not stated) | – | – | – | – | – | – | 24 µM (inactive) | –
34 | CCOC(=O)C(NC(=O)N(C1=NCC(C)S1)C1CCCCC1)(OC)C(F)(F)F (configuration not stated) | 32.3 µM (inactive) | 36.2 µM (inactive) | 42.5 µM (inactive) | 46.5 µM (inactive) | 65.5 µM (inactive) | 30.8 µM (inactive) | – | –
35 | COc1ccc(N(C)C(=O)N(C)c2ccc([N+](=O)[O-])cc2)cc1 | 44.8 µM (inactive) | 90.6 µM (inactive) | 6.4 µM (inactive) | 45.3 µM (inactive) | 23.6 µM (inactive) | – | – | –
36 | CCOC(=O)c1csc(NC(=O)CCN2CCCCC2)n1 | – | > 100 µM (inactive) | – | > 100 µM (inactive) | > 100 µM (inactive) | > 100 µM (inactive) | – | –
37 | CSC(=N)N1N=C2/C(=C/c3ccccc3)CCC[C@H]2[C@H]1c1ccccc1 | – | – | – | – | – | – | 2.9 µM (inactive) | 1.07 µM (active)
38 | O=C(O)C1(Cc2ccc3c(c2)CCC3)Cc2cc3c(cc2C1)CCC3 | > 100 µM (inactive) | > 100 µM (inactive) | > 100 µM (inactive) | – | – | > 100 µM (inactive) | – | –
39 | CCCc1cc(=O)oc2c3c(c4c(c12)OC(C)(C)CC4)O[C@@H](C)[C@H](C)[C@H]3O | 5.06 µM (inactive) | 17.8 µM (inactive) | 15.8 µM (inactive) | 2.16 µM (inactive) | 9.4 µM (inactive) | 4.23 µM (inactive) | – | –
40 | COc1cc(C)cc(OC)c1/C=C/C(=O)O | > 100 µM (inactive) | – | 24.8 µM (inactive) | > 100 µM (inactive) | > 100 µM (inactive) | > 100 µM (inactive) | – | –
41 | CC1(c2nc3ccccc3[nH]2)CCC(C#N)C(C)(C)O1 (configuration not stated) | > 100 µM (inactive) | > 100 µM (inactive) | > 100 µM (inactive) | > 100 µM (inactive) | > 100 µM (inactive) | > 100 µM (inactive) | – | –
42 | COc1cc(CO)c(CC(=O)NCCCc2ccccc2)cc1OC | > 100 µM (inactive) | > 100 µM (inactive) | > 100 µM (inactive) | > 100 µM (inactive) | 99.1 µM (inactive) | > 100 µM (inactive) | – | –
43 | CS(=O)(=O)c1n[nH]c2nc(O)nc(O)c12 | > 10 µM (inactive) | > 10 µM (inactive) | > 10 µM (inactive) | > 10 µM (inactive) | > 10 µM (inactive) | > 10 µM (inactive) | – | –
44 | COC(=O)c1ccc(NC(=O)c2cc(OC)c(OC)c(OC)c2)cc1 | – | – | – | – | – | – | 0.305 µM (active) | 49.4 µM (inactive)
45 | CCCCCCc1cc2cc(C(=O)Nc3nc(C45CC6CC(CC(C6)C4)C5)cs3)c(=O)oc2cc1O | 23.8 µM (inactive) | 22.1 µM (inactive) | 11.8 µM (inactive) | 7.33 µM (inactive) | 17.3 µM (inactive) | 9.27 µM (inactive) | – | –
46 | BrP(NC1CCCCCC1)(c1ccccc1)(c1ccccc1)c1ccccc1 | 3.26 µM (inactive) | 8.26 µM (inactive) | 3 µM (inactive) | 3.56 µM (inactive) | 44 µM (inactive) | 1.56 µM (inactive) | – | –
47 | S=C(S)N1CCN(c2ccccc2)CC1 | > 100 µM (inactive) | > 100 µM (inactive) | > 100 µM (inactive) | > 100 µM (inactive) | > 100 µM (inactive) | > 100 µM (inactive) | – | –
48 | CCC1=C(C(C)=O)[C@@H]2CCCCC(C(=O)OC)[C@@H]2C1=O (some centres not stated) | – | – | – | – | – | – | > 100 µM (inactive) | 47 µM (inactive)
49 | C=C1CCC2[C@@H](CCC3[C@]2(C)CCC[C@]3(C)C(=O)OC)C1CCO (some centres not stated) | – | – | – | – | – | – | 5.11 µM (inactive) | 16 µM (inactive)
50 | COC(=O)[C@H](Cc1ccc(O)cc1)NC(=O)[C@H](Cc1ccc(O)cc1)NC(=O)OC(C)(C)C (Boc-Tyr-Tyr-OMe) | > 100 µM (inactive) | > 100 µM (inactive) | > 100 µM (inactive) | 60 µM (inactive) | > 100 µM (inactive) | > 100 µM (inactive) | – | –
51 | Oc1cc(O)c2c(c1)O[C@H](c1ccc(O)c(O)c1)[C@@H](O)C2 [CIANIDANOL] | – | > 100 µM (inactive) | > 100 µM (inactive) | > 100 µM (inactive) | > 100 µM (inactive) | > 100 µM (inactive) | – | –
